Source: ChEMBL document CHEMBL1201862, “PubChem BioAssay data set” (2004)
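Following 48 hours of exposure in 96-well plates, responses at five concentrations were used to interpolate endpoints linearly. Here, GI50 denotes the concentration required for 50% inhibition of growth.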 The source made the active and inactive calls. Cut-off read from the data, not from the text of the source: active = GI50 up to about 1.1 µM and inactive = higher.

What was measured:
Assay in all cases: NCI anticancer screen, dose series, 48 h
[1] = test system: DLD-1
[2] = test system: SNB-78
[3] = test system: LXFL 529
[4] = test system: RXF 631
[5] = test system: M19-MEL
[6] = test system: KM-20L2
[7] = test system: DMS-273
[8] = test system: HOP-18
[9] = test system: BT-549

Measured: GI50

N=C(N)NS(=O)(=O)c1ccc(NC(=O)c2cccn3c(=O)c4ccccc4nc23)cc1
inactive: [1] 83 µM | [2] > 100 µM | [3] 37.5 µM | [4] 41.4 µM | [5] 31.4 µM | [6] 13.6 µM | [7] 32.1 µM | [8] > 100 µM

CCN(CC)CCC(=O)/C=C/c1ccc(C)cc1
inactive: [1] 6.17 µM | [2] 23.5 µM | [3] 7.67 µM | [4] 16.4 µM | [5] 12.8 µM | [6] 15.6 µM | [7] 11.2 µM | [8] 17.6 µM

C[Si](C)(C)CC(N)=O
inactive: [1] > 100 µM | [2] > 100 µM | [3] > 100 µM | [4] > 100 µM | [5] > 100 µM | [6] > 100 µM | [7] > 100 µM | [8] > 100 µM

C=C1C(=O)OC2CC(C)C3C=CC(=O)C3CC12 (stereo unspecified)
inactive: [2] 3.42 µM | [3] 1.26 µM | [4] 3.88 µM | [5] 2.72 µM | [6] 3.52 µM | [7] 3.54 µM | [9] 2.64 µM | [8] 5.77 µM

COc1cc2c(cc1OC)C1[C@@H](c3ccccc3)OCN1CC2 (stereo partly specified)
inactive: [1] > 86.9 µM | [2] > 73.1 µM | [3] > 100 µM | [4] > 100 µM | [5] > 100 µM | [6] > 100 µM | [7] > 100 µM | [8] > 100 µM

COc1ccc2nc(C(=O)c3ccccc3)c(C)cc2c1
inactive: [1] 4.84 µM | [2] 13.2 µM | [3] 9.25 µM | [4] 8.18 µM | [5] 7.82 µM | [6] 3.18 µM | [7] 3.08 µM | [8] > 26.9 µM

CN(C)c1ccc(/C=C2\N=C(c3ccc(N)cc3)OC2=O)cc1
inactive: [1] > 100 µM | [2] > 100 µM | [3] > 100 µM | [4] > 100 µM | [5] > 100 µM | [6] > 100 µM | [7] > 100 µM | [8] > 100 µM

COc1ccc(/C(Cl)=C(/c2ccc(O)cc2)c2ccc(OCCN(C)C)cc2)cc1
inactive: [1] 15.7 µM | [2] 14.5 µM | [3] 10.8 µM | [4] 12.4 µM | [5] 3.72 µM | [6] 3.1 µM | [7] 11.1 µM | [8] 12.5 µM

O=C(O)CC(O)(c1ccccc1C(=O)O)c1cccc2ccccc12 (stereo unspecified)
inactive: [1] > 100 µM | [2] > 100 µM | [3] > 100 µM | [4] > 100 µM | [5] > 100 µM | [7] > 100 µM | [8] > 100 µM
